Assay results reported in the OPERA property sets (Mansouri et al. 2018).
Peptide text beside a SMILES is read from it.

**Q.** For `C[C@]1(O)CC[C@H]2[C@@H]3CCC4=CC(=O)CC[C@@H]4[C@H]3CC[C@@]21C`, which logP is on record?
**A.** 2.99

**Q.** Which logP does the source give for `CNC(=S)NCc1ccccc1` here?
**A.** 1.35

**Q.** With `CC(=O)c1ccc(C#N)cc1` as the compound, how does the logP read?
**A.** 1.22

**Q.** For `CCO[Si](C)(C)OCC`, which logP is on record?
**A.** 0.61

**Q.** For `CN(C)C(=S)NN`, which logP is on record?
**A.** -0.3

**Q.** With `CNc1c(NCCSCc2nc[nH]c2C)c(=O)c1=O` as the compound, how does the logP read?
**A.** -0.08

**Q.** With `COc1cccc(N)c1` as the compound, how does the logP read?
**A.** 0.93

**Q.** Which logP does the source give for `NS(=O)(=O)c1ccc(S(=O)(=O)CCO)s1` here?
**A.** -0.54

**Q.** With `c1nnn[nH]1` as the compound, how does the logP read?
**A.** -0.6

**Q.** With `Cc1ccc2cc(C)c(C)cc2c1` as the compound, how does the logP read?
**A.** 4.73

**Q.** With `O=[N+]([O-])c1cccc(Br)c1` as the compound, how does the logP read?
**A.** 2.64

**Q.** With `NC(=O)c1cccc(C(N)=O)c1` as the compound, how does the logP read?
**A.** -0.21

**Q.** For `CCCCn1cnc2c(NC(C)=O)ncnc21`, which logP is on record?
**A.** 0.55

**Q.** For `NS(=O)(=O)c1ccc2c(c1)S(=O)(=O)NC(CC1CCCC1)N2` (stereo not drawn), which logP is on record?
**A.** 1.24

**Q.** With `CNc1ccccc1[N+](=O)[O-]` as the compound, how does the logP read?
**A.** 2.18

**Q.** With `CN(C)C(=O)Nc1cccc(Cl)c1` as the compound, how does the logP read?
**A.** 2

**Q.** Which logP does the source give for `OCCCCCl` here?
**A.** 0.85

**Q.** Which logP does the source give for `O=[N+]([O-])c1ccco1` here?
**A.** 0.66

**Q.** For `NC(=O)c1cccc(Br)c1`, which logP is on record?
**A.** 1.65

**Q.** For `CC(=O)c1ccc(N(C)C)cc1`, which logP is on record?
**A.** 2.1

**Q.** For `COc1ccc(C=C(C(C)=O)C(C)=O)c(OC)c1`, which logP is on record?
**A.** 1.88

**Q.** For `O=[N+]([O-])c1ncn(CC(O)CCl)n1` (stereo not drawn), which logP is on record?
**A.** 0.05

**Q.** Which logP does the source give for `CCN1CC(C(O)C(CC2CCCCC2)NC(=O)C(Cc2c[nH]cn2)NC(=O)C(CC(=O)N2CC(OCOCCOC)C(OCOCCOC)C2)Cc2ccccc2)OC1=O` (stereo not drawn) here?
**A.** 1.87

**Q.** Which logP does the source give for `CCOCC(O)Cn1cnc([N+](=O)[O-])n1` (stereo not drawn) here?
**A.** -0.07

**Q.** Which logP does the source give for `ICCI` here?
**A.** 2.71

**Q.** For `CCCCCCCOC(=O)c1ccc(O)cc1`, which logP is on record?
**A.** 4.83

**Q.** Which logP does the source give for `COc1cccnc1` here?
**A.** 0.99

**Q.** With `Nc1cc(Cl)c(Cl)cc1N` as the compound, how does the logP read?
**A.** 2

**Q.** With `NC(=O)NO` as the compound, how does the logP read?
**A.** -1.8

**Q.** With `CC(=O)c1ccccn1` as the compound, how does the logP read?
**A.** 0.85

**Q.** Which logP does the source give for `CCCCCN(C)/N=N/c1ccc(C(N)=O)cc1` here?
**A.** 3.18

**Q.** Which logP does the source give for `CCCOP(=O)(OCCC)OCCC` here?
**A.** 1.87

**Q.** For `c1ccc(Sc2cccnc2)cc1`, which logP is on record?
**A.** 3.15

**Q.** With `COC(=O)c1ccco1` as the compound, how does the logP read?
**A.** 1

**Q.** Which logP does the source give for `CN(C)CC=Cc1ccccc1` here?
**A.** 2.61

**Q.** For `O=C(O)C(c1ccccc1)c1ccccc1`, which logP is on record?
**A.** 3.09

**Q.** For `COC1C(O)C(C)OC(OC2CCC3(C)C(CCC4C3CCC3(C)C(C5=CC(=O)OC5)CCC43O)C2)C1O` (stereo not drawn), which logP is on record?
**A.** 2.1

**Q.** For `C[C@]12CC[C@H](O)C[C@H]1CC[C@@H]1[C@@H]2CC[C@]2(C)[C@@H](C3=CC(=O)OC3)CC[C@]12O`, which logP is on record?
**A.** 2.64

**Q.** Which logP does the source give for `CCC(=O)O[C@]1(C(=O)CO)CC[C@H]2[C@@H]3CCC4=CC(=O)CC[C@]4(C)[C@H]3[C@@H](O)C[C@@]21C` here?
**A.** 2.7

**Q.** With `CCCCSC#N` as the compound, how does the logP read?
**A.** 2.03

**Q.** Which logP does the source give for `O=C(O)c1ccccc1I` here?
**A.** 2.4

**Q.** With `CC1=NS(=O)(=O)c2ccc(C(F)(F)F)cc2N1` as the compound, how does the logP read?
**A.** 1.59

**Q.** For `O=C(Oc1ccc(N=C=S)cc1)c1ccccc1`, which logP is on record?
**A.** 4.9

**Q.** Which logP does the source give for `CC1(C)N=C(N)N=C(N)N1c1ccccc1` here?
**A.** 0.28

**Q.** With `CCc1cccs1` as the compound, how does the logP read?
**A.** 2.87

**Q.** Which logP does the source give for `NC(CCCc1ccccc1)C(=O)O` (stereo not drawn) here?
**A.** -0.36

**Q.** With `O=C(O)c1ccc(Cl)cc1[N+](=O)[O-]` as the compound, how does the logP read?
**A.** 2.08

**Q.** Which logP does the source give for `O=c1cc[nH]cn1` here?
**A.** -1.38

**Q.** Which logP does the source give for `Clc1ccc2nccnc2c1` here?
**A.** 2.1

**Q.** Which logP does the source give for `Cn1nc2ccccc2n1` here?
**A.** 1.64

**Q.** For `NC(=O)OCc1ccc(Cl)cc1`, which logP is on record?
**A.** 1.97

**Q.** Which logP does the source give for `O=c1nccc[nH]1` here?
**A.** -1.62

**Q.** For `S=P(N1CC1)(N1CC1)N1CC1`, which logP is on record?
**A.** 0.53

**Q.** Which logP does the source give for `O=C(O)CCCn1nnc2ccccc21` here?
**A.** 0.01

**Q.** Which logP does the source give for `CCCOc1ccccc1` here?
**A.** 3.18

**Q.** With `O=[N+]([O-])CCO` as the compound, how does the logP read?
**A.** -0.42

**Q.** Which logP does the source give for `CCOC(=O)c1ccc(N=NN(C)CCO)cc1` here?
**A.** 2.66

**Q.** With `COc1ccc(C(C)=O)c(OC)c1OC` as the compound, how does the logP read?
**A.** 1.63

**Q.** Which logP does the source give for `CCN(CC)CC(F)(F)F` here?
**A.** 1.88

**Q.** With `O=C(NO)c1ccccc1` as the compound, how does the logP read?
**A.** 0.26

**Q.** Which logP does the source give for `Cc1cc(=O)[nH]o1` here?
**A.** 0.46

**Q.** Which logP does the source give for `COc1ccc(C=CC(=O)O)cc1OC` here?
**A.** 2.34

**Q.** With `CC(=O)OC1CCCCC1NC(=O)N(CCCl)N=O` (stereo not drawn) as the compound, how does the logP read?
**A.** 1.98

**Q.** Which logP does the source give for `Cc1cccc2c(N)cnnc12` here?
**A.** 1.57

**Q.** With `O=C(CCn1cnc([N+](=O)[O-])n1)N1CCOCC1` as the compound, how does the logP read?
**A.** -0.74

**Q.** For `Cc1ncc([N+](=O)[O-])n1CCS(C)(=O)=O`, which logP is on record?
**A.** -0.82

**Q.** With `CCc1cccc(N2C(=O)CCC2=O)c1` as the compound, how does the logP read?
**A.** 1.04

**Q.** Which logP does the source give for `NC(=O)c1cccc([N+](=O)[O-])c1` here?
**A.** 0.77

**Q.** Which logP does the source give for `CCCCCCBr` here?
**A.** 3.8

**Q.** For `CN(C)C(=O)Nc1cccc(N)c1`, which logP is on record?
**A.** -0.1

**Q.** With `O=C(O)c1ccc(N=C=S)cc1` as the compound, how does the logP read?
**A.** 3.52

**Q.** With `CC(=O)Nc1ccc(S(=O)(=O)F)cc1` as the compound, how does the logP read?
**A.** 2.17

**Q.** With `CC(C)C(=O)NC(N)=O` as the compound, how does the logP read?
**A.** 0.04

**Q.** Which logP does the source give for `CC(C)NCC(O)c1ccc(Cl)c(Cl)c1` (stereo not drawn) here?
**A.** 3.32

**Q.** With `CN1CCN(CCCN2c3ccccc3Sc3ccc(C(F)(F)F)cc32)CC1` as the compound, how does the logP read?
**A.** 5.03

**Q.** With `O=[N+]([O-])C=Cc1ccc(Cl)cc1` as the compound, how does the logP read?
**A.** 2.44

**Q.** Which logP does the source give for `O=C(O)Cc1ccccc1Nc1c(Cl)cccc1Br` here?
**A.** 4.64

**Q.** Which logP does the source give for `CC(=O)NCC(=O)N[C@@H](Cc1ccccc1)C(N)=O` (Ac-Gly-Phe-NH2) here?
**A.** -0.56

**Q.** Which logP does the source give for `CCOC(=O)C(=Cc1cccc(OCC)c1)C(=O)OCC` here?
**A.** 3.39

**Q.** For `CN(C)C(N(C)C)=S(I)c1cccc([N+](=O)[O-])c1` (stereo not drawn), which logP is on record?
**A.** -0.88

**Q.** For `Cc1ccccc1OC(=O)N(C)C`, which logP is on record?
**A.** 1.86

**Q.** Which logP does the source give for `CCOc1cn[nH]c1` here?
**A.** 0.8

**Q.** With `NCCCCCc1ccccn1` as the compound, how does the logP read?
**A.** 1.32
